Test results reported in EP2167084B1, “AN ALLERGEN DOSAGE FORM COMPRISING AN ANTIHISTAMINE” (ALK-Abelló A/S, priority 2007, dated 2008).

Assay: Cross-over, single-centre investigation of the effect of desloratidine on local adverse effects caused by Phleum pratense pollen extract (Grazax)
Assay type: in vivo, patients
Details: 2.5 mg, half the daily dose for a person above 12 years of age, given with Grazax
Description: Investigation of the effect of desloratidine on adverse effects such itching in or around the mouth and the lips, ithching throat, itching in the ears and eyes caused by Phleum pratense pollen extract
The study was is was a cross-over, single-centre investigation.
The patients participated on two single days (visit 1 and visit 2) separated by approximately two weeks to avoid development of tolerance due to Grazax treatment. The subjects received one Grazax 75,000 SQ-T on Visit 1 and if they reported treatment related local adverse events in the mouth and/or throat after intake they were eligible for Visit 2. If no treatment related adverse events were reported after Grazax intake on Visit 1 the subjects were excluded from the study. On visit 2, the subjects received 1 antihistamine (Aerius (Desloratadine) melting tablet 2.5 mg, i.e. orally-disintegrating tablet). Grazax was administered immediately after intake of antihistamine.
AEs were reported on AE pages. AEs were rated mild, moderate or severe. Furthermore, the subjects rated the AE severity on a Visual Analogue Scale (VAS). The AEs of interest were itching mouth, itching throat or other local reactions.
A total of 15 subjects attended visit 1. […] These were therefore eligible for visit 2. Key selection criteria were: • 1. […]

Q: With `Clc1ccc2c(c1)CCc1cccnc1C2=C1CCNCC1` [desloratidine] as the compound, how does the “relief from the itching of the mouth and pharynx” value read?
A: Its value is “sufficient to relieve most patients”.
